Assay [1] concerns the target double-stranded 17-mer DNA fragment. The experiment in a line: ThO (Thiazole Orange) DNA displacement assay.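 Further: miniaturized displacement of the intercalating dye from unlabeled duplex DNA, used to flag nonspecific DNA binders, chiefly intercalators, groove binders may be missed.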 The class given is binding. Particulars: read-out: ThO-DNA binding IC50.
Assay [2] has as its target T1, APE1 (Homo sapiens, UniProt P27695).
T1 construct: made in house
The assay is described as follows: Fluorogenic kinetic qHTS APE1 incision assay (primary screen and retest of cherrypicked samples).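 Further: purified APE1 cleaving a fluorophore/dark-quencher labelled 17-mer duplex DNA bearing a tetrahydrofuran AP site, fluorescence rise followed kinetically over the first 2 min, inhibition normalized to controls.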 The class given is biochemical.
Method: All screening operations were performed on a fully integrated robotic system (Kalypsys, San Diego, CA) [28] with library plates screened proceeding from the lowest to the highest concentration to minimize compound carryover [26]. Vehicle-only plates, with DMSO being pin-transferred to the entire column 5–48 compound area, were included regularly throughout the screen in order to record any systematic shifts in assay signal. During the screen, reagent bottles were kept at 4°C and all liquid lines were covered with aluminum foil to minimize degradation.
Screening data were corrected and normalized, and concentration–effect relationships was derived using in-house developed algorithms [25].
To screen for inhibitors of APE1 incision activity, we employed a purified-enzyme biochemical assay with a model substrate featuring a red-shifted fluorescent reporter in combination with a dark non-emitting quencher. These moieties were incorporated as end labels onto a 17-mer double-stranded DNA fragment containing a centrally-located tetrahydrofuran AP site sugar mimetic, which serves as the APE1 cleavage site. Upon APE1-catalyzed strand scission immediately 5′ to the AP site analog, the shortened oligodeoxynucleotide carrying the fluorescent reporter spontaneously dissociates from the rest of the substrate, leading to an increase in fluorescence due to its spatial separation from the dark quencher (Figure 1A).
Using a high-speed whole-plate fluorescence imager, the assay data for the entire screen was conducted in kinetic mode, with the APE1 incision reaction being monitored over the initial linear time frame of 2 min (Figure 1B). Thus, any inhibition associated with each sample was computed from the alteration in fluorescence intensity over the time-course measurement period, after normalization against the appropriate controls (Figure 1B, inset).

In assay [3] the target is T1, APE1. The experiment in a line: Fluorescence polarization (FP) displacement assay of APE1 binding to AP-DNA probe.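 Further: TAMRA 5′-labeled duplex DNA with THF abasic site (5 nM) and APE1 (20 nM), Mg2+-free buffer, 15 min at room temperature, inhibition seen as lowered polarization.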 As to conditions: read-out: FP IC50.
Method: Double-stranded oligodeoxynucleotide containing tetrahydrofuran (THF) abasic site labeled with TAMRA at the 5′-end was used as the labeled binding probe. Inhibition of APE1 binding to labeled probe was detected by a decrease in the fluorescence polarization (FP) of the fluorophore. Briefly, 4 µL mixture of 20 nM APE1 and 5 nM probe contained in the enzymatic assay buffer from which Mg^2+ was omitted, was dispensed into 1536-well Greiner black solid bottom plates. Compounds (23 nL) were transferred via pintool, and after a 15-minute incubation at room temperature, fluorescence polarization was measured in a ViewLux High-throughput CCD imager (480 nm excitation and 540 nm emission) to determine the degree of probe displacement caused by the test compounds.
The next assay addresses T2, E. coli Endo IV (Escherichia coli, UniProt P0A6C1).
T2 construct: made in house
The assay is described as follows: E. coli Endo IV profiling counterscreen.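 Further: selectivity counterscreen of candidate APE1 inhibitors against the bacterial endonuclease Endo IV, run in the same assay format as the primary APE1 high-throughput screen.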 Particulars: read-out: EndoIV IC50. It is filed as biochemical. A general note: A counterscreen serves to expose hits that act by an unwanted route or on another target.

The target of assay [4] is T1, APE1. The experiment in a line: Gel-based APE1 incision assay with fluorescence (TAMRA) detection. It is filed as biochemical.
The mark [5] stands for this setting: initial quantitative high-throughput screen, read-out: APE1 qHTS IC50.
Setting [6] is: retest of cherrypicked sample, read-out: APE1 Retest IC50.
[7] abbreviates: entries 113-223: fluorophore detection, estimated IC50, read-out: Gel-based electrophoretic separation assay with fluorophore detection, estimated IC50 (column headed Radiotracer Assay (%Activity)).
[8] abbreviates: estimated IC50, fluorophore detection, entries 113-223, read-out: F-PAGE Assay IC50.

Bounds are passed on as bounds.

T1 sequence (P27695 whole entry): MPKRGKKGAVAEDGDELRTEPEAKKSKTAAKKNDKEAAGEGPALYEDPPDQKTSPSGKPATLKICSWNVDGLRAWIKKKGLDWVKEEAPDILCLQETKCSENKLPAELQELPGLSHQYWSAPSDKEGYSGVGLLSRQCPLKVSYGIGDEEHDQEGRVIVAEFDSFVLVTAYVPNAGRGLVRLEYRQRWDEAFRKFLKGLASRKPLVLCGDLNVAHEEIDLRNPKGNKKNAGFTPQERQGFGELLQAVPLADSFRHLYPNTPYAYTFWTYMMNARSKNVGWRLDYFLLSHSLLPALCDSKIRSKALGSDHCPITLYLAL
From the text for E. coli Endo IV: In order to screen out nonselective compounds, such as non-specific DNA binders and inhibitors of related enzymes, we used a miniaturized ThO DNA displacement assay and a counterscreen against the bacterial endonuclease E. coli Endo IV, respectively, following the previously published protocols [21].
To probe the selectivity of the candidate APE1 inhibitors, we tested them against E. coli EndoIV [36], employing the same assay as used in the HTS.

For `CCNc1nc(NCC)n2c(SCC(=O)Nc3ccccc3C(F)(F)F)nnc2n1` [MLS001234389], the IC50 in assay [1] was more than 57 µM; at APE1 [2] (setting [5]) it was 21.2 µM; on APE1 [2] (setting [6]), 12.9 µM; on APE1 [3], more than 57 µM; on E. coli Endo IV, more than 57 µM; on APE1 [4] (setting [7]), 14.1 µM.
As for `CN(CC(=O)Nc1c(Cl)cccc1Cl)C(=O)c1cccc(-n2cccc2)c1` [MLS001079471], the IC50 in assay [1] was more than 57 µM; at APE1 [2] (setting [5]) it was 4.2 µM; on APE1 [2] (setting [6]), 11.5 µM; at APE1 [3] it was 10.2 µM; on E. coli Endo IV, more than 57 µM; at APE1 [4] (setting [8]) it was 2.5 µM.
Take `CC(=O)c1ccccc1NS(=O)(=O)c1cccc2nsnc12` [MLS001008046]: the IC50 in assay [1] is more than 57 µM; on APE1 [2] (setting [5]), 5.3 µM; on APE1 [2] (setting [6]), 8.1 µM; on APE1 [3] it was 28.9 µM; at E. coli Endo IV, more than 57 µM; on APE1 [4] (setting [8]) it was 5.6 µM.
Take `O=C(C[C@@H]1C/C=C\C[C@H](Cc2ccc(F)cc2)C(=O)OC[C@@H](Cc2c[nH]c3ccccc23)NC1=O)NCCO` [MLS002320105]: the IC50 in assay [1] is more than 57 µM; on APE1 [2] (setting [5]) it was 11.9 µM; at APE1 [3], more than 57 µM; on E. coli Endo IV, more than 57 µM; at APE1 [4] (setting [8]), 5.6 µM.
Take `CC(C)(C)OC(=O)C[C@@H]1C/C=C\C[C@H](CC(=O)NCCO)C(=O)N2CCC[C@H]2COC1=O` [MLS002320191]: the IC50 in assay [1] is more than 57 µM; at APE1 [2] (setting [5]) it was 6.7 µM; at APE1 [2] (setting [6]) it was 20.4 µM; on APE1 [3], more than 57 µM; at E. coli Endo IV, more than 57 µM; at APE1 [4] (setting [8]), 7.9 µM.
On to `Cc1cccc(NC(=O)CNC(=O)c2cccc(-n3cccc3)c2)c1C` [MLS001141795], for which the IC50 in assay [1] was more than 57 µM; on APE1 [2] (setting [5]), 1.9 µM; on APE1 [2] (setting [6]) it was 6.5 µM; on APE1 [3], more than 57 µM; at E. coli Endo IV, more than 57 µM; at APE1 [4] (setting [8]), 1.1 µM.
For the compound `O=C(CSc1nnc(CNC(=O)c2c(F)cccc2F)o1)NCc1ccco1` [MLS001235900], the IC50 is more than 57 µM in assay [1]; 10.6 µM on APE1 [2] (setting [5]); 45.7 µM on APE1 [2] (setting [6]); 18.2 µM at APE1 [3]; more than 57 µM at E. coli Endo IV; 12.6 µM on APE1 [4] (setting [7]).
Regarding `c1ccc2c(NCCc3c[nH]c4ccccc34)c3ccccc3nc2c1` [MLS001195935], the IC50 in assay [1] was 32.4 µM; on APE1 [2] (setting [5]), 18.9 µM; on APE1 [2] (setting [6]) it was 18.2 µM; on APE1 [3] it was more than 57 µM; on E. coli Endo IV, more than 57 µM; on APE1 [4] (setting [7]) it was 25.1 µM.
Turning to `CC1(C)CC2CC(C)(CN2C(=O)COC(=O)c2ccc(O)cc2O)C1` (stereo not shown) [MLS002251953], the IC50 is more than 57 µM in assay [1]; 10.6 µM on APE1 [2] (setting [5]); 14.5 µM at APE1 [2] (setting [6]); more than 57 µM on APE1 [3]; more than 57 µM on E. coli Endo IV; 15.8 µM at APE1 [4] (setting [7]).
In the case of `COc1ccc(NC(=O)CN(C)C(=O)c2cc3c(s2)CCC3)cc1` [MLS001081306], the IC50 is 40.8 µM in assay [1]; 1.9 µM on APE1 [2] (setting [5]); 7.3 µM on APE1 [2] (setting [6]); more than 57 µM on APE1 [3]; more than 57 µM on E. coli Endo IV; 0.1 µM on APE1 [4] (setting [8]).
`NC(=O)c1ccc(NC(=O)COC(=O)c2cc3c(s2)CCC3)cc1` [MLS002251079]: the IC50 was more than 57 µM in assay [1]; 3 µM on APE1 [2] (setting [5]); 12.9 µM at APE1 [2] (setting [6]); 18.2 µM at APE1 [3]; more than 57 µM on E. coli Endo IV; 3.5 µM on APE1 [4] (setting [8]).
For `COc1ccc(NC(=O)CN(C)C(=O)c2cccc(-n3cccc3)c2)cc1` [MLS001097639], the IC50 is more than 57 µM in assay [1]; 2.4 µM at APE1 [2] (setting [5]); 18.2 µM on APE1 [2] (setting [6]); more than 57 µM at APE1 [3]; more than 57 µM on E. coli Endo IV; 3.5 µM at APE1 [4] (setting [8]).
For the compound `CC(C)(C)OC(=O)C[C@@H]1C/C=C\C[C@@H](CC(=O)NCCO)C(=O)N[C@H](Cc2c[nH]c3ccccc23)COC1=O` [MLS002320206], the IC50 in assay [1] is more than 57 µM; at APE1 [2] (setting [5]), 15 µM; at APE1 [2] (setting [6]), 16.2 µM; at APE1 [3], more than 57 µM; at E. coli Endo IV, more than 57 µM; on APE1 [4] (setting [7]) it was 20 µM.
For `CCCN(C(=O)c1cccc(-n2cccc2)c1)c1c(N)n(Cc2ccccc2)c(=O)[nH]c1=O` [MLS001098232], the IC50 was more than 57 µM in assay [1]; 6.7 µM on APE1 [2] (setting [5]); 6.5 µM on APE1 [2] (setting [6]); 20.4 µM on APE1 [3]; more than 57 µM on E. coli Endo IV; 2.8 µM at APE1 [4] (setting [8]).
In the case of `O=C(O)C1CCCCC1C(=O)Nc1cccc(Br)c1` (stereo not shown) [MLS002152987], the IC50 was more than 57 µM in assay [1]; 0.5 µM on APE1 [2] (setting [5]); 5.1 µM on APE1 [2] (setting [6]); more than 57 µM at APE1 [3]; more than 57 µM at E. coli Endo IV; 0.9 µM on APE1 [4] (setting [8]).
In the case of `C=CC1=C(C(=O)O)N2C(=O)[C@@H](NC(=O)/C(=N\OCC(=O)O)c3csc(N)n3)[C@H]2SC1` [MLS002222332], the IC50 is more than 57 µM in assay [1]; 11.9 µM at APE1 [2] (setting [5]); more than 57 µM on APE1 [3]; more than 57 µM at E. coli Endo IV; 2.8 µM on APE1 [4] (setting [8]).
For `O=C1C=C(c2ccc3cc[nH]c3c2)C[C@@H](c2ccc3c(c2)OCO3)C1` [MLS001060910], the IC50 was more than 57 µM in assay [1]; 11.9 µM at APE1 [2] (setting [5]); 18.2 µM on APE1 [2] (setting [6]); more than 57 µM at APE1 [3]; more than 57 µM on E. coli Endo IV; 3.2 µM at APE1 [4] (setting [8]).
Regarding `O=C(CSc1nnc(Nc2ccccc2F)s1)NC(=O)CN1CCCC1=O` [MLS002163634], the IC50 in assay [1] is more than 57 µM; at APE1 [2] (setting [5]), 10.6 µM; at APE1 [2] (setting [6]), 10.2 µM; on APE1 [3], 18.2 µM; at E. coli Endo IV, more than 57 µM; at APE1 [4] (setting [8]), 8.9 µM.
As for `Cc1ccc(C)c(S(=O)(=O)Nc2ccc3oc(C)c(C(=O)O)c3c2)c1` [MLS000948181], the IC50 in assay [1] is more than 57 µM; at APE1 [2] (setting [5]), 13.4 µM; at APE1 [2] (setting [6]), 20.4 µM; on APE1 [3] it was more than 57 µM; at E. coli Endo IV it was more than 57 µM; on APE1 [4] (setting [8]) it was 2.8 µM.
As for `COc1ccc(NC(=O)COC(=O)c2cc3c(s2)CCC3)cc1` [MLS002159150], the IC50 is more than 57 µM in assay [1]; 5.3 µM at APE1 [2] (setting [5]); 11.5 µM on APE1 [2] (setting [6]); 36.3 µM on APE1 [3]; more than 57 µM at E. coli Endo IV; 7.1 µM at APE1 [4] (setting [8]).
For `CCOC(=O)c1ccc2[nH]c(-c3ccc(S(=O)(=O)F)cc3)cc(=O)c2c1` [MLS000737558], the IC50 in assay [1] is more than 57 µM; on APE1 [2] (setting [5]), 18.9 µM; on APE1 [2] (setting [6]), 14.5 µM; on APE1 [3] it was 20.4 µM; at E. coli Endo IV, 36.3 µM; at APE1 [4] (setting [7]), 28.2 µM.
For the compound `COc1ccc(NC(=O)c2cc(-c3ccco3)nc3ccccc23)cn1` [MLS002164354], the IC50 in assay [1] was more than 57 µM; at APE1 [2] (setting [5]), 11.9 µM; on APE1 [2] (setting [6]), 14.5 µM; on APE1 [3] it was 36.3 µM; at E. coli Endo IV it was 22.9 µM; at APE1 [4] (setting [8]) it was 7.1 µM.
Turning to `CCN(CC(=O)Nc1c(F)cccc1F)C(=O)/C=C/c1ccc2ccccc2n1` [MLS001128172], the IC50 is more than 57 µM in assay [1]; 1.7 µM at APE1 [2] (setting [5]); 20.4 µM at APE1 [2] (setting [6]); more than 57 µM on APE1 [3]; more than 57 µM on E. coli Endo IV; 4 µM on APE1 [4] (setting [8]).
